Results on 1 substance are retold here after patent US11001615B2, “Mutated tau protein fragment and use thereof” (ADEL INC., priority 2016, dated 2021).

What all share (format): in vivo
A short description of test [1]: Antibody production after primary and secondary boosting (vaccine comparison). To be noted: compared with N-terminal fragment of tau protein. On the procedure: In addition, in order to identify whether the K280-ac fragment is effective as a vaccine, the N-terminal fragment and the K280-ac fragment of the tau protein having the amino acid sequence represented by SEQ ID NO: 31 were administered, and primary boosting and secondary boosting were performed. Then, these fragments were compared in terms of antibody production.

In test [2] the test system is Tau-P301L dementia mice. Briefly: Western blotting of brain tissues for tau proteins (tauopathy-alleviating effect). To be noted: brain tissue. On the procedure:
(§1) JNPL3 mice expressing Tau-P301L mutant gene were purchased from Taconic, and back-crossed with C57bl/6 mice for five generations in the experimental animal room of the Asan Institute for Life Sciences. Then, the mice were raised under a specific pathogen free (SPE) condition. For active immunization, the mice were administered, for six months starting from three months after birth at intervals of two weeks, two weeks, four weeks, four weeks, five weeks, four weeks, and one week in this order, the four modified tau protein fragments prepared in Preparation Example 1 together with keyhole limpet hemocyanin (KLH) as a carrier and an aluminum adjuvant. At this time, administration was carried out through intraperitoneal injection (IP injection). The dementia mice which were actively immunized by administration of the K280-ac fragment were designated as Tau-P301L-K280-ac.
(§2) In order to identify a tauopathy-alleviating effect following administration of the K280-ac fragment, brain tissues of the Tau-P301L-K280-ac dementia mice, the P301L-K280-ac dementia mice, and the normal mice produced in Preparation Example 2 were extracted, and western blotting and immunohistochemical staining were performed.
On the technique in general: Immunoblotting shows a protein as a band on a membrane.

Test [3] has as its system Tau-P301L dementia mice. Briefly: Novel object recognition experiment. To be noted: Tau-P301L 50% decrease versus normal mice. On the procedure:
as §1
In addition, a memory experiment was performed with novel object recognition. […] Two identical objects were placed in the white box, and then the time spent staying around each object was measured while allowing the mice to make exploration for 5 minutes. 4 hours later, one of the objects installed was replaced with another model, and movement of the mice and the time spent staying around the object were measured for 5 minutes.

Test [4] relates to Tau-P301L dementia mice. In words: Western blotting of brain tissues for GCP-II. To be noted: brain tissue. On the procedure:
as §1
Glutamate carboxypeptidase-2 ([…], folate hydrolase 1) is a NAAG peptidase that degrades NAAG. There is a possibility that an increase in GCP-II is a cause for decreased NAAG. Thus, brain tissues of the Tau-P301L-K280-ac dementia mice, the P301L-K280-ac dementia mice, and the normal mice produced in Preparation Example 2 were extracted and western blotting was performed.

The test system of test [5] is Tau-P301L dementia mice. Briefly: Grip strength test. As for the experimental part: as §1
A grip strength test was performed to identify muscle strength of the mice. […] At this time, an iron bundle that weighs 40 g was used for the iron bundle. The mice produced in Preparation Example 2 were held by the tail end, and the forefeet of the mice were caused to be placed on the 40 g iron bundle so that the mice can grab the iron bundle. […] The time until the mice missed the iron bundle was measured and comparison was made for the respective mice.

The test system of test [6] is Tau-P301L dementia mice. In words: Western blotting of cerebral cortex fractions (tau aggregation-mitigating effect). To be noted: cerebral cortex fractions (soluble or insoluble). On the procedure: as §1
In order to identify a tau aggregation-mitigating effect following administration of the K280-ac fragment, western blotting was performed with the cerebral cortices of the Tau-P301L-K280-ac dementia mice, the P301L-K280-ac dementia mice, and the normal mice produced in Preparation Example 2.

Test [7] has as its system Tau-P301L dementia mice. Briefly: Immunohistochemical staining of brain tissues for tau proteins. To be noted: brain tissue. On the procedure:
as §1, §2

The subject of test [8] is Tau-P301L dementia mice. In words: Rota-rod test. To be noted: 5th day. As for the experimental part:
as §1, with “Tau-P301L-K280-ac. […]” for “Tau-P301L-K280-ac.”
Specifically, the test was intended to measure how long the mice are able to stay on a rotating rotor. The mice were trained for 4 days and a motor ability thereof was measured on the 5th day. The training was repeated three times a day, during which the time to stay on the rotor and the final rpm were measured while increasing the rpm of the rotor. On the 5th day, the experiment was conducted under the same condition except that a result was measured only once without repeating (FIGS. 14 and 15).
(In general: The rotarod test checks motor coordination on a turning rod.)

For test [9], the system named is Tau-P301L dementia mice. In words: Water maze test. To be noted: 5th day, platform removed; normal mice about 3, Tau-P301L about 1. As for the experimental part: as §1
An underwater maze test was performed to evaluate a learning and memory ability of the mice. […] Specifically, the underwater maze test took a total of 5 days. The mice were trained for 4 days in a state where a platform and a visual cue for the platform location are placed.
The learning was conducted by filling a swimming pool (1.4 m in diameter, 45 cm in depth) having a platform with water (29±0.5° C.) to a depth of about 26.5 cm, and then 1.5 L of whole milk powder was added to make water cloudy so that the mice can remember the platform with the cue only. Then, the mice were adapted to freely swim for 60 seconds and allowed to rest on the platform for 1 minute. The experiment was performed over a total of 12 times with 4 sets at three different starting positions. At the end of each test, 30 seconds of break time was given. At the end of one set, 30 to 45 minutes of break time was given.
After 4 days of learning, the test was performed on the 5th day. In the experiment for evaluation, the platform was not placed, and the number of staying in the area where the platform has been placed was measured in order to identify whether the mice visit well the platform location using the cue only. The test time was set for the mice to arrive at the location where the platform had been placed within one minute. If the mice fail to arrive at the platform location within one minute, the mice were removed out of the swimming pool.

The test system of test [10] is Tau-P301L dementia mice. In words: qPCR of brain tissues for inflammation-related genes. To be noted: brain tissue, compared with non-immunized dementia mice. On the procedure:
as §1
In order to identify an inflammation-improving effect following administration of the K280-ac fragment, brain tissues of the Tau-P301L-K280-ac dementia mice, the P301L-K280-ac dementia mice, and the normal mice produced in Preparation Example 2 were extracted, and qPCR was performed for inflammation-related genes.
Background: In qPCR the cycle at which signal appears reflects the starting amount.

Ends that are not written are not given here.

Turning to “Val-Gln-Ile-Ile-Asn-Lys-Lys-Leu-Asp-Leu-Ser-Asn (VQIINK(Ac)KLDLSN) [K280-ac]”, in [1], the antibody production entry is “higher antibody production than the N-terminal fragment”. Besides, in the test with Tau-P301L dementia mice [2], the acetylated tau proteins result is listed as “decrease” and the phosphorylated tau proteins result was “decrease”. Besides, the “tau proteins in which lysine, the 280th amino acid, is acetylated” value with Tau-P301L dementia mice [2] (Tau-P301L 2-fold increase versus normal mice) was “decreased level of tau proteins which corresponds to that in the normal mice”. Further, in the test with Tau-P301L dementia mice [3], the “time spent staying around the novel object” value is “increased to a level which corresponds to that in the normal mice”. Besides, the “expression level of GCP-II” value with Tau-P301L dementia mice [4] was “decreased expression level of GCP-II which corresponds to that in the normal mice”. Besides, the “measured time for grab strength” value in the test on Tau-P301L dementia mice [5] (40 g iron bundle, normal mice 10 or shorter, Tau-P301L 5 or shorter) is given as “about 12 seconds”. Also, the “grip strength, change versus controls” value with Tau-P301L dementia mice [5] (actively immunized Tau-P301L dementia mice) is recorded as “restored to that of the normal mice”. Moreover, in the test with Tau-P301L dementia mice [6], the acetylated tau proteins result is “decreased”, the entire tau protein entry is given as “decreased” and the phosphorylated tau proteins result was “decreased”. Moreover, in the test on Tau-P301L dementia mice [7], the acetylated tau proteins result was “decreased” and the phosphorylated tau proteins result was “decreased”. In addition, in the test on Tau-P301L dementia mice [8], the rota-rod rpm entry is reported as “increased to levels which correspond to those for the normal mice” and the rota-rod time result was “increased to levels which correspond to those for the normal mice”. The number of arrivals result with Tau-P301L dementia mice [9] is reported as “about 3 times”. In addition, in the test on Tau-P301L dementia mice [10], the IFN-γ gene entry is listed as “decrease”, the IL-4 gene result was “decrease”, the IL-12 gene entry is reported as “increase” and the IL-22 gene entry is “decrease”.
